Reference: article PMC4228444 (BMC Complementary and Alternative Medicine, 2013)
In brackets after ≈: the same amount, converted by molar mass. Several values for one entry are separate records, joined by “and”; a condition that tells them apart may be missing. Equal values may be shown once.

Key:
IL 8 = IL 8 release from U937 cells stimulated with heat-killed P. acnes (ELISA); format: cell-based, human; settings: for Inhibitory ratio (%) IL 8: 18 h
Protocol: (§1) Briefly, the log phase culture of P. acnes was harvested, washed three times with phosphate buffer saline (PBS), and incubated at 80°C for 30 min to kill the bacteria. The heat-killed bacteria were stored at 4°C until use. […] Pentoxifylline was used as a control. […] Cytokine standards were serially diluted to facilitate the construction of calibration curves necessary for determining protein concentration after treatment with test samples. The ratio (%) of inhibition of the cytokine release was calculated using the following equation: […] Where T represents the concentration of the cytokine in the culture supernatant with the test sample, and C represents the concentration of cytokine in the culture supernatant with the solvent.

TNF α = TNF α release from U937 cells stimulated with heat-killed P. acnes (ELISA); format: cell-based, human; settings: for Inhibitory ratio (%) TNF α: 18 h
Protocol: as §1

[1] = test system: Propionibacterium acnes (ATCC 11827); assay: Antibacterial activity, broth microdilution MIC (INT colour change); format: cell-based; settings: P. acnes, 72 h anaerobic; for MIC: Cutibacterium acnes, ATCC11827, 72 h
Protocol: The ethanol extract and compounds were tested against P. acnes by determining the minimum inhibitory concentration (MIC) values obtained by a microdilution method as previously described with few modifications. Briefly, the bacteria was cultured from a Kwik-Stick on nutrient agar and incubated at 37°C for 72 h under anaerobic conditions before the assay. The 72 h culture of the bacteria was dissolved in nutrient broth and the suspension was adjusted to 0.5 McFarland standard turbidity. […] In a sterile 96-well plate, 100 μl of samples from the stock solution consisting of the plant extract/isolated compounds (2 mg/ml in 10% dimethyl sulphoxide (DMSO)) and the positive control tetracycline (0.2 mg/ml) were diluted with broth. Twofold serial dilutions were made in broth over a range to give concentrations of 500–3.9 μg/ml and 50–0.3 and μg/ml for the plant extract/ isolated compounds and positive control tetracycline, respectively. The bacterial suspension (100 μl) was then added to the wells. The wells with 2.5% DMSO and bacterial suspension without samples served as the solvent and negative controls, respectively. The plates were incubated at 37°C for 72 h in an anaerobic environment.

P. acnes [2] = assay: Transmission electron microscopy of treated P. acnes; format: cell-based, Propionibacterium acnes; settings: 50 μg/ml, 72 h
Protocol: The TEM procedures followed the protocol of a previous publication. Briefly, bacteria was concentrated by centrifugation at 10 000 rpm for 1 min. The pellet was resuspended in nutrient broth to a final OD550 nm of 1. […] The bacterial suspension (5 ml) was mixed with plant extract and pure compound to a final concentration of 300 and 100 μg/ml for plant extract and 50 μg/ml for pure compound. Tetracycline (50 μg/ml) and DMSO (2.5%) were used as positive and solvent control, respectively. The pathogen was treated for 72 h; the control group consisted of only bacterial suspension in nutrient broth. Treated and untreated P. acnes cultures were centrifuged and fixed in 2.5% glutraldehyde in phosphate buffer at room temperature for 1 h. Samples were washed with phosphate buffer and postfixed in both 1% osmium tetraoxide and uranyl acetate. The cells were dehydrated in ethanol and embedded in quetol resin. Thin sections were prepared with a microtome and micrographs were taken using a JEOL JEM-2100 F field emission electron microscope.

P. acnes [3] = test system: P. acnes; design: method as in doi:10.1021/jf00030a036; settings: cited from earlier work
[4] = In vitro cytotoxicity assay (XTT), B16-F10; settings: mouse
Protocol: (§2) The mouse melanocytes (B16-F10) cells were cultured in a complete Minimum Essential Eagle’s Medium (MEM) whereas the human U937 cells were cultured in Roswell Park Memorial Institute (RPMI) containing 10% fetal bovine serum (FBS) and 1% gentamycin. B16-F10 (10^5 cells per well) and U937 (10^6 cells per well) were seeded into a 96-well plate. After an overnight incubation at 37°C in 5% CO2 and a humidified atmosphere, the extract, compounds and the positive control (actinomycin D) were added to the cells. […] The highest concentration of positive control (0.05 μg/ml) was serially diluted to eight consecutive wells. The plate was then incubated at 37°C in 5% CO2, and a humidified atmosphere after which the toxic effects of the extracts were assayed using the XTT (sodium 3’-[1-(phenyl amino-carbonyl)-3,4-tetrazolium]-bis-[4-methoxy-6-nitrobenzene sulfonic acid hydrate) cytotoxicity assay. […] The optical densities of the wells were measured at 450 nm (690 nm reference wavelength) using BIOTEK Power-wave XS multi well reader (A.D.P., Weltevreden Park, South Africa). By referring to the control (medium with DMSO), the cell survival rate was assessed.

[5] = In vitro cytotoxicity assay (XTT), U937; settings: human
Protocol: as §2

DPPH antioxidant assay = format: biochemical; settings: for Antioxidant IC50: 550 nm
Protocol: Antioxidant activity of the ethanol extract of S. jambos and compounds was investigated using 1,2-diphenyl-1-picrylhydrazyl (DPPH) antioxidant assay. Following the procedures as described by DuToit et al. for each sample, a dilution series (8 dilutions) was prepared in a 96 well plate by adding distilled water as a dilution medium. Final concentration of the samples ranged from 100 to 0.7 μg/ml. Each concentration was tested in triplicate. Vitamin C was used as a positive control. […] The radical scavenging activity was measured in terms of the amount of antioxidants necessary to decrease the initial DPPH absorbance by 50% (IC50). The IC50 value of each sample was determined graphically by plotting the absorbance of DPPH as a function of the sample concentration in μg/ml. The IC50 is the amount of antioxidant necessary to decrease the initial DPPH absorbance by 50%. The results are expressed as the mg vitamin C equivalents/g dry weight and calculated as follows: […]

CC(=O)CCCCn1c(=O)c2c(ncn2C)n(C)c1=O [Pentoxifylline, reference compound]
Inhibitory ratio (%) IL 8 (IL 8; final concentration 10 μg/ml): -0.16%
Inhibitory ratio (%) IL 8 (IL 8; final concentration 50 μg/ml): -5.0%
Inhibitory ratio (%) IL 8 (IL 8; final concentration 100 μg/ml): -1.3%
Change in IL 8 concentration in words (IL 8; pentoxifylline control): no significant change
Inhibition of TNF α in words (TNF α; at 100 and 50 μg/ml): Very high inhibition
Inhibitory ratio (%) TNF α (TNF α; final concentration 10 μg/ml): 66.8%
Inhibitory ratio (%) TNF α (TNF α; final concentration 50 μg/ml): 99.7%
Inhibitory ratio (%) TNF α (TNF α; final concentration 100 μg/ml): 99.7%

CN(C)[C@@H]1C(O)=C(C(N)=O)C(=O)[C@@]2(O)C(O)=C3C(=O)c4c(O)cccc4[C@@](C)(O)[C@H]3C[C@@H]12 [tetracycline, reference compound]
MIC ([1]; 37°C): 3.1 µg/mL
MIC ([1]; value in brackets): 7 µM
TEM: cell injury to P. acnes (P. acnes [2]): significant damages to the cells of P. acnes

CCCCCCCCCCCCCCCc1cccc(O)c1C(=O)O [pentadecyl salicylic acid]
MIC (P. acnes [3]): 0.78 µg/mL (≈ 2.24 µM)

O=C(O)c1cc(O)c(O)c(O)c1 [Gallic acid, gallic acid]
MIC ([1]; 37°C): > 500 µg/mL
Antibacterial MIC ([1]; 37°C): Na (not active at the highest concentration tested (500 μg/ml))
EC50 [4]: 2.2 µg/mL and 13.1 µM
Inhibition of TNF α in words (TNF α; at the highest concentration tested): suppressed TNF α drastically
EC50 [5]: 28.4 µg/mL and 169 µM
Antioxidant IC50 (DPPH antioxidant assay; DPPH): 0.8 µg/mL
IC50 (DPPH antioxidant assay; DPPH, value in brackets): 4.8 µM
Antioxidant Mg Vit C equivalents/g dry weight (DPPH antioxidant assay; IC50 vit C/IC50 sample × 1000): 2444.9 Mg Vit C equivalents/g dry weight

pentadecatrienyl salicylic acid
MIC (P. acnes [3]): 0.78 µg/mL

CC(C)=CCC/C(C)=C/CC/C(C)=C/CC/C=C(\C)CC/C=C(\C)CCC=C(C)C [Squalene, squalene]
MIC ([1]; 37°C): > 500 µg/mL
Antibacterial MIC ([1]; 37°C): Na (not active at the highest concentration tested (500 μg/ml))
viability at 100 μg/ml ([4]; B16-F10 melanocyte cells): 100%
EC50 ([4]; B16-F10 mouse melanocyte cells): > 100 µg/mL
EC50 [5]: > 100 µg/mL
viability at 100 μg/ml [5]: 100%
Antioxidant IC50 (DPPH antioxidant assay; DPPH): >100 µg/mL

pentadecadienyl salicylic acid
MIC (P. acnes [3]): 0.78 µg/mL
